24 molecules from ChEMBL document CHEMBL5126623, “Dual Targeting of Steroid Sulfatase and 17β-Hydroxysteroid Dehydrogenase Type 1 by a Novel Drug-Prodrug Approach: A Potential Therapeutic Option for the Treatment of Endometriosis” (J Med Chem, 2022) can be followed below.

Assay [1] has as its target T1, Steryl-sulfatase (Homo sapiens, UniProt P08842).
T1 sequence (P08842 whole entry): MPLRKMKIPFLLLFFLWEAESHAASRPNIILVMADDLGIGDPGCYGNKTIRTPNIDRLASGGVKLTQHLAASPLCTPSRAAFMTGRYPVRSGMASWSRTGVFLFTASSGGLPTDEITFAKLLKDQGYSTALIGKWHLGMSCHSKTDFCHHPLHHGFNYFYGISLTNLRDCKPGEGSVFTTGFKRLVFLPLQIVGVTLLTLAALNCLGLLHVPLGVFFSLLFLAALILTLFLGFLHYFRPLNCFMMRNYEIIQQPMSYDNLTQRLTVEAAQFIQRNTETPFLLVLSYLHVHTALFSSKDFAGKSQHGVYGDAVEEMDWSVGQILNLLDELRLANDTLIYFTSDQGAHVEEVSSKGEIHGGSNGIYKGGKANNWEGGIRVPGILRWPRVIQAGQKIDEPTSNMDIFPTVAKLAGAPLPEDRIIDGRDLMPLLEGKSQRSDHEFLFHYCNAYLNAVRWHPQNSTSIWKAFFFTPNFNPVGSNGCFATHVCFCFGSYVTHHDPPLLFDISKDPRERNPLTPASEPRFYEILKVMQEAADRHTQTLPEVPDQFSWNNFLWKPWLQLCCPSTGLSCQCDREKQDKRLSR
Description: Inhibition of STS in human T47D cells using [3H]E1S as substrate measured after 24 hrs by HPLC analysis. In kind it is cell-based.

The target in assay [2] is T2, 17-beta-hydroxysteroid dehydrogenase type 1 (Homo sapiens, UniProt P14061).
T2 sequence (P14061 whole entry): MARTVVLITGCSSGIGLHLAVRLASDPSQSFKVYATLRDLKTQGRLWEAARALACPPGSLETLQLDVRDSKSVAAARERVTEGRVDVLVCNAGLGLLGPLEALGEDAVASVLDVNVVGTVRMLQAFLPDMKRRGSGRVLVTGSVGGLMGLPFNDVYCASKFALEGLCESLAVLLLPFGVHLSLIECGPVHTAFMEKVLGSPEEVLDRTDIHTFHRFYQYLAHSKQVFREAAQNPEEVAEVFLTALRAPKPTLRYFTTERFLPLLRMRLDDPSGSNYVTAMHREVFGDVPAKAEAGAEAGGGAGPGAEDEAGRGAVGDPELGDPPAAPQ
The assay is described as follows: Inhibition of 17beta-HSD1 in human T47D cells using [3H]E1S as substrate measured after 24 hrs by HPLC analysis. Format: cell-based.

Assay [3] is filed under the species Homo sapiens. Description: Selectivity ratio of IC50 for human placental microsomal fraction 17beta-HSD2 to IC50 for human placental cytosolic fraction 17beta-HSD1.
Assay [4] deals with T2, 17-beta-hydroxysteroid dehydrogenase type 1. The assay is described as follows: Inhibition of human placental cytosolic fraction 17beta-HSD1 using [3H]-E1 as substrate in presence of NADH measured after 10 mins by HPLC method. Format: subcellular, Placenta, Cytosol.
In assay [5] the target is T3, 17-beta-hydroxysteroid dehydrogenase type 2 (Homo sapiens, UniProt P37059).
T3 sequence (P37059 whole entry): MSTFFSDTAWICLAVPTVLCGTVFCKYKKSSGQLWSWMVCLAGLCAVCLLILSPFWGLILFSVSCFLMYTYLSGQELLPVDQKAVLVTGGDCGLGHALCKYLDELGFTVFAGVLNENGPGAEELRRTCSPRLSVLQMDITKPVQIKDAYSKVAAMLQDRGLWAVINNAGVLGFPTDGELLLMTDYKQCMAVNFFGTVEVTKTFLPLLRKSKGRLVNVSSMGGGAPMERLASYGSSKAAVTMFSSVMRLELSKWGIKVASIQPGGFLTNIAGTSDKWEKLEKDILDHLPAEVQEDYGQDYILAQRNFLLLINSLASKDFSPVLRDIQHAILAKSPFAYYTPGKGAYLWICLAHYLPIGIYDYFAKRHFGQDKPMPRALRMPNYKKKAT
The assay is described as follows: Inhibition of human placental microsomal fraction 17beta-HS2 using [3H]-E2 as substrate in presence of NAD+ measured after 10 mins by HPLC method. Format: subcellular, Placenta, Microsome.

What is called IC50 is the concentration that inhibits the measured activity by half. For `Cc1cccc(F)c1N(C)C(=O)c1ccc(-c2ccc(OS(N)(=O)=O)cc2)o1`, the IC50 in assay [1] turned out to be 150 nM.
`Cc1ccccc1N(C)C(=O)c1ccc(-c2ccc(O)cc2F)o1` had an IC50 in assay [2] of 10 nM. For the same molecule, in assay [3], the Ratio IC50 came to 42.
For the molecule `Cc1ncccc1N(C)C(=O)c1ccc(-c2ccc(OS(N)(=O)=O)cc2)o1`, it took 270 nM to reach half-maximal inhibition in assay [1] (IC50).
In the case of `Cc1ncccc1N(C)C(=O)c1ccc(-c2ccc(O)cc2)o1`, the IC50 in assay [2] was 43 nM; in assay [4], 160 nM; in assay [5], greater than 30000 nM. Further, the Ratio IC50 in assay [3] was greater than 190.
For `Cc1cccnc1N(C)C(=O)c1ccc(-c2ccc(O)cc2)o1`, in that order: 1100 nM, 3300 nM, greater than 10000 nM and greater than 3.
For `Cc1ccccc1N(C)C(=O)c1ccc(-c2cccc(O)c2)o1` the same measures were 29 nM, 150 nM, 2800 nM and 19.
For `Cc1ccccc1N(C)C(=O)c1coc(-c2ccc(O)cc2)n1`, in that order: 110 nM, 250 nM, greater than 10000 nM and greater than 40.
`Cc1ccccc1N(C)C(=O)c1cnc(-c2ccc(O)cc2)s1`: the IC50 in assay [2] came out at 340 nM; in assay [4], 600 nM; in assay [5], 4500 nM. The Ratio IC50 in assay [3] worked out at 7.5.
Molecule `Cc1ccccc1N(C)C(=O)c1cnc(-c2ccc(OS(N)(=O)=O)cc2)s1` registered a half-maximal inhibitory concentration (IC50) in assay [1] of 130 nM.
For the molecule `Cc1cc(-c2ccc(C(=O)N(C)c3ccccc3C)o2)ccc1O`, the IC50 in assay [2] stood at 8.6 nM. Besides, the Ratio IC50 in assay [3] stood at 150.
On to `Cc1ccc(F)cc1N(C)C(=O)c1ccc(-c2ccc(O)cc2)o1`, for which the IC50 worked out at 12 nM in assay [2], 41 nM in assay [4] and 2200 nM in assay [5]. In assay [3], the Ratio IC50 amounted to 54.
Take `Cc1ccncc1N(C)C(=O)c1ccc(-c2ccc(OS(N)(=O)=O)cc2)o1`: in assay [1], the 50% inhibitory concentration (IC50) was 820 nM.
Regarding `Cc1ccccc1N(C)C(=O)c1ccc(-c2ccccc2O)o1`, the IC50 in assay [2] is 1900 nM; in assay [4], 1900 nM; in assay [5] it was greater than 10000 nM. In addition, the Ratio IC50 in assay [3] was greater than 5.2.
Consider `Cc1cc(-c2ccc(C(=O)N(C)c3ccccc3C)o2)ccc1OS(N)(=O)=O`, for which the IC50 in assay [1] was found to be 570 nM.
For `Cc1ccccc1N(C)C(=O)c1nnc(-c2ccc(O)cc2)o1`, the IC50 in assay [2] came out at 320 nM; in assay [4], 490 nM; in assay [5] it was 6200 nM. Also, in assay [3], the Ratio IC50 worked out at 13.
As for `Cc1cccc(F)c1N(C)C(=O)c1ccc(-c2ccc(O)cc2)o1`, the IC50 stood at 120 nM in assay [2], 310 nM in assay [4] and 3200 nM in assay [5]. In addition, in assay [3], the Ratio IC50 came out at 10.
For `Cc1ccncc1N(C)C(=O)c1ccc(-c2ccc(O)cc2)o1`, in that order: 64 nM, 260 nM, greater than 20000 nM and greater than 77.
For `Cc1ccccc1N(C)C(=O)c1ccc(-c2ccc(O)c(F)c2)o1`, the IC50 was found to be 10 nM in assay [2] and 11 nM in assay [4]. In assay [3], the Ratio IC50 was determined as 85.
In assay [2], `Cc1ccccc1N(C)C(=O)c1ccc(-c2ccc(O)cc2Cl)o1` gave an IC50 of 14 nM. Moreover, the Ratio IC50 in assay [3] was 13.
Molecule `Cc1ccccc1N(C)C(=O)c1ccc(-c2cccc(OS(N)(=O)=O)c2)o1` yielded an IC50 in assay [1] of 690 nM.
Take `Cc1c(F)cccc1N(C)C(=O)c1ccc(-c2ccc(O)cc2)o1`: the IC50 came out at 50 nM in assay [2], 170 nM in assay [4] and 3900 nM in assay [5]. For the same molecule, in assay [3], the Ratio IC50 was 23.
In the case of `Cc1cc(F)ccc1N(C)C(=O)c1ccc(-c2ccc(O)cc2)o1`, the IC50 amounted to 7.6 nM in assay [2], 23 nM in assay [4] and 1700 nM in assay [5]. Further, the Ratio IC50 in assay [3] worked out at 74.
In turn, `Cc1ccccc1N(C)C(=O)c1nnc(-c2ccc(OS(N)(=O)=O)cc2)o1` yielded a half-inhibitory concentration (IC50) in assay [1] of 1100 nM.
Same read-out and setting: as for `Cc1cccnc1N(C)C(=O)c1ccc(-c2ccc(OS(N)(=O)=O)cc2)o1`, the figure is 1100 nM.
